Reference: publication PMC6591457, “Staphylococcus aureus Uses the Bacilliredoxin (BrxAB)/Bacillithiol Disulfide Reductase (YpdA) Redox Pathway to Defend Against Oxidative Stress Under Infections” (Frontiers in Microbiology, 2019)

How the values were obtained:
[1] = target: T1, YpdA (Staphylococcus aureus, UniProt A0A0H2WWS2); experiment: NADPH consumption at […] nm; assay type: biochemical; conditions: 12.5 uM YpdA, 40 uM BSSB, 500 uM NADPH, 20 mM Tris, 1.25 mM EDTA, pH 8.0
T1 construct: gene SACOL1520; full-length, His6-tagged, pET11b, E. coli BL21(DE3) pLysS, Ni-NTA purified, prereduced with DTT
T1 sequence (A0A0H2WWS2 entry or part of it): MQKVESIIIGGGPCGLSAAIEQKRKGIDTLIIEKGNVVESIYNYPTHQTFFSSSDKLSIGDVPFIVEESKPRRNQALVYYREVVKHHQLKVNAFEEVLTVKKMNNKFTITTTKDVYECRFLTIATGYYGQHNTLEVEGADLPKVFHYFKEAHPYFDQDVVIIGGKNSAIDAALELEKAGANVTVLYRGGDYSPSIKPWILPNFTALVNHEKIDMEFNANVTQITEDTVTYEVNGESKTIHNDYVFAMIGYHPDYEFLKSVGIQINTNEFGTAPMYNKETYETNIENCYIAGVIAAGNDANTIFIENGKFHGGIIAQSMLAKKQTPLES

[2] = target: T1, YpdA; experiment: UV-visible spectrum of purified enzyme; assay type: binding; conditions: co-purified flavin, absorbance peaks at 375 and 450 nm

**Q.** How did the “NADPH consumption at 340 nm” value [1] turn out when `NC(=O)C1=CN([C@@H]2O[C@H](COP(=O)(O)OP(=O)(O)OC[C@H]3O[C@@H](n4cnc5c(N)ncnc54)[C@H](OP(=O)(O)O)[C@@H]3O)[C@@H](O)[C@H]2O)C=CC1` [NADPH] was run?
**A.** The value was “Purified YpdA is able to reduce BSSB back to BSH with electrons from NADPH”.

**Q.** For `Cc1cc2nc3c(=O)[nH]c(=O)nc-3n(C[C@H](O)[C@H](O)[C@H](O)COP(=O)(O)OP(=O)(O)OC[C@H]3O[C@@H](n4cnc5c(N)ncnc54)[C@H](O)[C@@H]3O)c2cc1C` [FAD], which “UV-visible spectrum of purified enzyme” value [2] is on record?
**A.** The value was “UV-visible spectrum revealed the presence of the FAD co-factor”.

**Q.** With `N[C@@H](CSSC[C@H](N)C(=O)N[C@H]1[C@@H](O[C@@H](CC(=O)O)C(=O)O)O[C@H](CO)[C@@H](O)[C@@H]1O)C(=O)N[C@H]1[C@@H](O[C@@H](CC(=O)O)C(=O)O)O[C@H](CO)[C@@H](O)[C@@H]1O` [BSSB] as the molecule, how does the “NADPH consumption at 340 nm” value [1] read?
**A.** Its value is “Incubation of YpdA protein with BSSB resulted in significant and fast consumption of NADPH”.
